For this series the following is noted: Liquid; for mass density: 101.33 kPa.

Numbers after ± are expanded uncertainties.

By mass density is commonly meant the mass of a sample divided by its volume. Broadly, the vapor or sublimation pressure is the equilibrium pressure above the liquid or solid. Regarding `C1CCOC1` [tetrahydrofuran], for the setting “298.15 K”, the mass density came out at 881.95 ± 0.45 kg/m3 and the “vapor or sublimation pressure” value amounted to 21.61 ± 0.15 kPa. For the same compound, where the note is “328.15 K”, the mass density is 865.36 ± 0.49 kg/m3 and the “vapor or sublimation pressure” value worked out at 70.61 ± 0.22 kPa.
The corresponding values for `C1COCO1` [1,3-dioxolane] are 1058.62 ± 0.71 kg/m3, 13.54 ± 0.14 kPa, 1039.88 ± 0.64 kg/m3 and 49.01 ± 0.19 kPa.
Taken in the same sequence, the figures for `C1CCOCC1` [tetrahydropyran] were 878.81 ± 0.81 kg/m3, 9.56 ± 0.14 kPa, 863.67 ± 0.85 kg/m3 and 33.95 ± 0.17 kPa.
The corresponding values for `CCCCCCCl` [1-chlorohexane] are 873.5 kg/m3, 1.255 ± 0.13 kPa, 859.01 kg/m3 and 5.965 ± 0.13 kPa.
Take `C1COCCO1` [1,4-dioxane]: where the note is “298.15 K”, the mass density amounted to 1027.87 ± 0.6 kg/m3 and the “vapor or sublimation pressure” value is listed as 4.9 ± 0.13 kPa. Under “328.15 K”, the mass density is given as 1010.69 ± 0.53 kg/m3 and the “vapor or sublimation pressure” value stood at 19.54 ± 0.15 kPa.

The record behind these values is the NIST ThermoML archive (doi:10.1016/j.jct.2008.03.017).
